Patent US12692254B2, “Benzimidazole inhibitors of PAD enzymes” (BRISTOL-MYERS SQUIBB COMPANY, priority 2018, dated 2026)

The compounds below were run against human PAD4 (hPAD4) (Homo sapiens, UniProt Q9UM07) (assay: RFMS human PAD4 functional assay (rapid-fire mass spectrum)). Conditions: 5 nM hPAD4 enzyme, 250 μM BAEE, 50 μM Calcium; 30 min preincubation, 90 min reaction at 37° C.
Assay type: biochemical
Outline: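 PAD4 (10 nM) preincubated 30 min with compound (top final 50 μM), then BAEE substrate added in pH 7.5 HEPES buffer with DTT, 50 μM calcium, TPEN; 90 min at 37° C. After TCA quench, citrulline derivatized with phenyl glyoxal (4 mM final, 30 min, 37° C) and quantified by RapidFire MS against internal standard.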

human PAD4 (hPAD4), sequence (Q9UM07 whole entry): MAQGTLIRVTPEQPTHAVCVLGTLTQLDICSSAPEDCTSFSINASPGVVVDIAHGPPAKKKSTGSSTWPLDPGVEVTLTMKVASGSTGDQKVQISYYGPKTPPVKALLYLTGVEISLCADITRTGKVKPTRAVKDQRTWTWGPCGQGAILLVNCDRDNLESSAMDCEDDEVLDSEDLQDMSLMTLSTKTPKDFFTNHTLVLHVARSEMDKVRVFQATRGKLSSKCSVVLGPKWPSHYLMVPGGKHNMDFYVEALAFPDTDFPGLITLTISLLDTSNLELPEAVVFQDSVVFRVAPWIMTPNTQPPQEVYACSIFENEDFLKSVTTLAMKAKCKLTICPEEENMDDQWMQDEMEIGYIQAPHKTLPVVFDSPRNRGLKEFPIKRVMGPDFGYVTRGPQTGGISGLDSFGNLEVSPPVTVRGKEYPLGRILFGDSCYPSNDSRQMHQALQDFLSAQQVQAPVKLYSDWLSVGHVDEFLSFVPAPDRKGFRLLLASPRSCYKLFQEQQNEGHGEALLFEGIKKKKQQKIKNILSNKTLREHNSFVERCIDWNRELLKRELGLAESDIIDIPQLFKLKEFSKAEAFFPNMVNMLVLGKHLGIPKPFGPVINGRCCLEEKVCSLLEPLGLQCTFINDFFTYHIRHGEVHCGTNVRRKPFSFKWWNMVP

IC50 [nM]	SMILES
31	COc1cc(C(=O)N2C[C@H]3CC[C@@H]2[C@@H]3N)cc2nc(-c3cc4ccccc4n3CC3CC3)n(CC3CN(C(=O)c4ccccn4)C3)c12 [Example 167, (1R,4R,7R)-2-{2-[1-(cyclopropylmethyl)-1H-indol-2-yl]-7-methoxy-1-{[1-(pyridine-2-carbonyl)azetidin-3-yl]methyl}-1H-1,3-benzodiazole-5-carbonyl}-2-azabicyclo[2.2.1]heptan-7-amine]
2050	COc1cc(C(=O)N2CC3CCC2[C@@H]3N)cc2nc(-c3csc4ccc(Cl)cc34)n(CC3CN(c4cncc(C(N)=O)c4)C3)c12 (stereo partly drawn) [Example 322, 5[3-({5-[(1R,4R,7R)-7-amino-2-azabicyc1o[2.2.1]heptane-2-carbonyl]-2-(5-ch1oro-1-benzothiophen-3-yl)-7-methoxy-1H-1,3-benzodiazol-1-yl}methyl)azetidin-1-yl]pyridine-3-carboxamide]
80	COc1cc(C(=O)N2C[C@H]3CC[C@@H]2[C@@H]3N)cc2nc(-c3cc4cccnc4n3CC3CC3)n(C[C@@H]3CCN(c4cncc(C#N)c4)C3)c12 [Example 211, 5-[(3R)-3-({5-[(1R,4R,7R)-7-amino-2-azabicyclo[2.2.1]heptane-2-carbonyl]-2-[1-(cyclopropylmethyl)-1H-pyrrolo[2,3-b]pyridin-2-yl]-7-methoxy-1H-1,3-benzodiazol-1-yl}methyl)pyrrolidin-1-yl]pyridine-3-carbonitrile]
192	COc1cc(C(=O)N2C[C@H]3CC[C@@H]2[C@@H]3N)cc2nc(-c3cc4cc(Cl)ccc4n3C)n(CC3CN(c4ncccn4)C3)c12 [Example 62, (1R,4R,7R)-2-[2-(5-chloro-1-methyl-1H-indol-2-yl)-7-methoxy-1-{[1-(pyrimidin-2-yl)azetidin-3-yl]methyl}-1H-1,3-benzodiazole-5-carbonyl]-2-azabicyclo[2.2.1]heptan-7-amine]
780	COc1cc(C(=O)N2C[C@H](N)C[C@@H](F)C2)cc2nc(-c3cc4ccccc4n3CC3CC3)n(Cc3ccccc3)c12 [Example 282, (3R,5R)-1-{1-benzyl-2-[1-(cyclopropylmethyl)-1H-indol-2-yl]-7-methoxy-1H-1,3-benzodiazole-5-carbonyl}-5-fluoropiperidin-3-amine]
276	COc1cc(C(=O)N2C[C@H]3CC[C@@H]2[C@@H]3N)cc2nc(-c3cc4cccnc4n3CC3CC3)n(CC3CN(C(=O)c4ccnc(C#N)c4)C3)c12 [Example 183, 4-[3-({5-[(1R,4R,7R)-7-amino-2-azabicyclo[2.2.1]heptane-2-carbonyl]-2-[1-(cyclopropylmethyl)-1H-pyrrolo[2,3-b]pyridin-2-yl]-7-methoxy-1H-1,3-benzodiazol-1-yl}methyl)azetidine-1-carbonyl]pyridine-2-carbonitrile]
326	COc1cc(C(=O)N2CC3CCC2[C@@H]3N)cc2nc(-c3cc4ccccc4n3CC3CC3)n(Cc3nc[nH]n3)c12 (stereo partly drawn) [Example 510, (7R)-2-{2-[1-(cyclopropylmethyl)-1H-indol-2-yl]-7-methoxy-1-[(1H-1,2,4-triazol-3-yl)methyl]-1H-1,3-benzodiazole-5-carbonyl}-2-azabicyclo[2.2.1]heptan-7-amine]
25	COc1cc(C(=O)N2C[C@H](N)C[C@@H](F)C2)cc2nc(-c3cc4cccnc4n3CC3CC3)n(Cc3cnn(-c4cccc(C)n4)c3)c12 [Example 363, (3R,5R)-1-{2-[1-(cyclopropylmethyl)-1H-pyrrolo[2,3-b]pyridin-2-yl]-7-methoxy-1-{[1-(6-methylpyridin-2-yl)-1H-pyrazol-4-yl]methyl}-1H-1,3-benzodiazole-5-carbonyl}-5-fluoropiperidin-3-amine]
331	COc1cc(C(=O)N2CC3CCC2[C@@H]3N)cc2nc(-c3cc4cccnc4n3CC3CC3)n([C@H]3C[C@H](NS(C)(=O)=O)C3)c12 (stereo partly drawn) [Example 298, N-[(1r,3r)-3-{5-[(1R,4R,7R)-7-amino-2-azabicyclo[2.2.1]heptane-2-carbonyl]-2-[1-(cyclopropylmethyl)-1H-pyrrolo[2,3-b]pyridin-2-yl]-7-methoxy-1H-1,3-benzodiazol-1-yl}cyclobutyl]methanesulfonamide]
70	N#Cc1ccc(C(=O)N2CC(Cn3c(-c4cc5cccnc5n4CC4CC4)nc4cc(C(=O)N5CC6CCC5[C@@H]6N)cc(F)c43)C2)cc1 (stereo partly shown) [Example 462]
20	COc1cc(C(=O)N2CC3CCC2[C@@H]3N)cc2nc(-c3cc4ccccc4n3CC3CC3)n(CC3CN(C(=O)c4ccc(C(F)(F)F)cc4)C3)c12 (stereo partly drawn) [Example 420, (7R)-2-{2-[1-(cyclopropylmethyl)-1H-indol-2-yl]-7-methoxy-1-({1-[4-(trifluoromethyl)benzoyl]aze-tidin-3-yl}methyl)-1H-1,3-benzodiazole-5-carbonyl}-2-azabicyclo[2.2.1]heptan-7-amine]
84	N[C@@H]1C2CCC1N(C(=O)c1cc(F)c3c(c1)nc(-c1cc4cccnc4n1CC1CC1)n3CC1CN(C(=O)c3ccncc3)C1)C2 (stereo partly drawn) [Example 466, (7R)-2-{2-[1-(cyclopropylmethyl)-1H-pyrrolo[2,3-b]pyridin-2-yl]-7-fluoro-1-{[1-(pyridine-4-carbonyl)azetidin-3-yl]methyl}-1H-1,3-benzodiazole-5-carbonyl}-2-azabicyclo[2.2.1]heptan-7-amine]
73	COc1cc(C(=O)N2CC3CCC2[C@@H]3N)cc2nc(-c3cc4ccccc4n3CC3CC3)n(CC3CN(C(=O)c4cnc(C#N)nc4)C3)c12 (stereo partly drawn) [Example 463, 5-[3-({5-[(7R)-7-amino-2-azabicyclo[2.2.1]heptane-2-carbonyl]-2-[1-(cyclopropylmethyl)-1H-indol-2-yl]-7-methoxy-1H-1,3-benzodiazol-1-yl}methyl)azetidine-1-carbonyl]pyrimidine-2-carbonitrile]
16	N[C@@H]1[C@@H]2CC[C@H]1N(C(=O)c1cc(Cl)c3c(c1)nc(-c1cc4ccccc4n1CC1CC1)n3CC1CN(C(=O)c3ccncc3)C1)C2 [Example 93, (3-((5-((1R,4R,7R)-7-amino-2-azabicyclo[2.2.1]heptane-2-carbonyl)-7-chloro-2-(1-(cyclopropylmethyl)-1H-indol-2-yl)-1H-benzo[d]imidazol-1-yl)methyl)azetidin-1-yl)(pyridin-4-yl)methanone]
219	COc1cc(C(=O)N2C[C@H]3CC[C@@H]2[C@@H]3N)cc2nc(-c3cc4cccnc4n3CC3CC3)n(C3CCN(C(=O)c4cnc(C#N)nc4)CC3)c12 [Example 229, 5-(4-{5-[(1R,4R,7R)-7-amino-2-azabicyclo[2.2.1]heptane-2-carbonyl]-2-[1-(cyclopropylmethyl)-1H-pyrrolo[2,3-b]pyridin-2-yl]-7-methoxy-1H-1,3-benzodiazol-1-yl}piperidine-1-carbonyl)pyrimidine-2-carbonitrile]
310	CCS(=O)(=O)N1CC(Cn2c(-c3cc4cccnc4n3CC3CC3)nc3cc(C(=O)N4CC5CCC4[C@@H]5N)cc(OC)c32)C1 (stereo partly drawn) [Example 336, (1R,4R.,7R)-2-{2-[1-(cyclopropylmethyl)-1H-pyrrolo[2,3-b]pyridin-2-yl]-1-{[1-(ethanesulfonyl)azetidin-3-yl]methyl}-7-methoxy-1H-1,3-benzodiazole-5-carbonyl}-2-azabicyclo[2.2,1]heptan-7-amine]
35	COc1cc(C(=O)N2CC3CCC2[C@@H]3N)cc2nc(-c3cc4cccnc4n3CC3CC3)n(CC3(F)CN(C(=O)c4ccccc4)C3)c12 (stereo partly drawn) [Example 438, (7R)-2-{1-[(1-benzoyl-3-fluoroazetidin-3-yl)methyl]-2-[1-(cyclopropymethyl)-1H-pyrrolo[2,3-b]pyridin-2-yl]-7-methoxy-1H-1,3-benzodiazole-5-carbonyl}-2-azabicyclo[2.2.1]heptan-7-amine]
491	COc1cc(C(=O)N2C[C@H]3CC[C@@H]2[C@@H]3N)cc2nc(-c3cc4ccccc4n3CC3CC3)n(CCN3CCNC3=O)c12 [Example 279, 1-(2-{5-[(1R,4R,7R)-7-amino-2-azabicyclo[2.2.1]heptane-2-carbonyl]-2-[1-(cyclopropylmethyl)-1H-indol-2-yl]-7-methoxy-benzodiazol-1-yl}ethyl)imidazolidin-2-one]
142	COc1cc(C(=O)N2C[C@H](N)C[C@@H](F)C2)cc2nc(-c3cc4ccccc4n3CC3CC3)n(CC3CC(F)(F)C3)c12 [Example 477, (3R,5R)-1-{2-[1-(cyclopropylmethyl)-1H-indol-2-yl]-1-[(3,3-difluorocyclobutyl)methyl]-7-methoxy-1H-1,3-benzodiazole-5-carbonyl}-5-fluoropiperidin-3-amine]
538	COc1cc(C(=O)N2C[C@H]3CC[C@@H]2[C@@H]3N)cc2nc(-c3cc4ccccc4n3C)n(CC3CNC3)c12 [Example 308, (1R,4R,7R)-2-{1-[(azetidin-3-yl)methyl]-7-methoxy-2-(1-methyl-1H-indol-2-yl)-1H-1,3-benzodiazole-5-carbonyl}-2-azabicyclo[2.2.1]heptan-7-amine]
24	COc1cc(C(=O)N2CC3CCC2[C@@H]3N)cc2nc(-c3cc4cccnc4n3CC3CC3)n(CC3CN(C(=O)c4cc(F)cc(F)c4)C3)c12 (stereo partly drawn) [Example 427, (7R)-2-{2-[1-(cyclopropylmethyl)-1H-pyrrolo[2,3-b]pyridin-2-yl]-1-{[1-(3,5-difluorobenzoyl)azetidin-3-yl]methyl}-7-methoxy-1H-1,3-benzodiazole-5-carbonyl}-2-azabicyclo[2.2.1]heptan-7-amine]
11	COc1cc(C(=O)N2C[C@H]3CC[C@@H]2[C@@H]3N)cc2nc(-c3cc4ccccc4n3CC3CC3)n(CC3CN(C(=O)c4cccc(C(=O)O)c4)C3)c12 [Example 137, 3-[3-({5-[(1R,4R,7R)-7-amino-2-azabicyclo[2.2.1]heptane-2-carbonyl]-2-[1-(cyclopropylmethyl)-1H-indol-2-yl]-7-methoxy-1H-1,3-benzodiazol-1-yl}methyl)azetidine-1-carbonyl]benzoic acid]
